Test results as given in ChEMBL document CHEMBL1127185, “4-Aryltetrahydropyridines as selective ligands” (Bioorg Med Chem Lett, 1993).

Legend:
Rattus norvegicus [1] = assay: Tested for the inhibition of dopamine firing at 2.5 mg/kg by intraperitoneal administration; type: functional; conditions: ip
D(2) dopamine receptor = D(2) dopamine receptor (Rattus norvegicus, UniProt P61169); assay: Binding affinity against Dopamine receptor D2 in rat striatum using [3H]spiperone; type: tissue-based
Rattus norvegicus [2] = assay: Tested for the inhibition of dopamine synthesis at 10 mg/kg by intraperitoneal administration; type: functional; conditions: ip
Mus musculus = assay: Tested for effective dose causing inhibition of mouse locomotor activity by intraperitoneal administration; type: functional; conditions: ip
Rattus norvegicus [3] = assay: Tested for the inhibition of dopamine firing at 2.5 mg/Kg by intraperitoneal administration; type: functional; conditions: ip
Rattus norvegicus [4] = assay: Tested for the inhibition of dopamine synthesis at 10 mg//Kg by intraperitoneal administration; type: functional

D(2) dopamine receptor, sequence (P61169 whole entry): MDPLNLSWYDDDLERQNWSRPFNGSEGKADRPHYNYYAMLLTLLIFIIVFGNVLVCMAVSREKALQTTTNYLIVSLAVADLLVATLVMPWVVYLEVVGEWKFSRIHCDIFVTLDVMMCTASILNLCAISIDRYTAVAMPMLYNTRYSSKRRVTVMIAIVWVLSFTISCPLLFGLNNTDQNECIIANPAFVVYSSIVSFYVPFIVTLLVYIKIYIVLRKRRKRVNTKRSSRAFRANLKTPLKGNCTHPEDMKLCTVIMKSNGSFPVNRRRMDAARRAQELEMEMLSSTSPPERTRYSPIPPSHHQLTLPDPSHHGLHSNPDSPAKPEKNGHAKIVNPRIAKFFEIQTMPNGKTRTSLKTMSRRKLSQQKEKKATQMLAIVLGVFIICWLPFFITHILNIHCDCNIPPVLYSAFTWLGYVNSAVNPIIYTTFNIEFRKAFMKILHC

SMILES | Ki (D(2) dopamine receptor) [nM] | ED50 (Mus musculus) [mg/kg] | further results
COc1ccc(C2=CCN(CCCCc3ccncc3)CC2)cc1 | 1640 | 7.4 | inhibition in vivo at 2.5 mg/kg (Rattus norvegicus [1]): 6%; inhibition in vivo at 10 mg/kg (Rattus norvegicus [2]): 18%
Clc1ccc(C2=CCN(CCCCc3ccncc3)CC2)cc1 | 456 |  | 
C1=C(c2cccs2)CCN(CCCCc2ccncc2)C1 | 496 |  | 
C1=C(c2ccc3ccccc3c2)CCN(CCCCc2ccncc2)C1 | 660 |  | 
C1=C(c2ccccn2)CCN(CCCCc2ccncc2)C1 | 322 |  | 
C1=C(c2c[nH]c3ccccc23)CCN(CCCCc2ccncc2)C1 | 286 |  | 
C1=C(c2ccccc2)CCN(CCCCc2ccncc2)C1 | 69.1 | 0.6 | inhibition in vivo at 2.5 mg/kg (Rattus norvegicus [3]): 80%; Inhibition (Rattus norvegicus [4]): 87%
Fc1ccc(C2=CCN(CCCCc3ccncc3)CC2)cc1 | 5310 | 3.8 | inhibition in vivo at 2.5 mg/kg (Rattus norvegicus [1]): 9%; inhibition in vivo at 10 mg/kg (Rattus norvegicus [2]): 0%
Cc1ccc(C2=CCN(CCCCc3ccncc3)CC2)cc1 | 957 |  | 
